Laboratory results: patent US20250066286A1, “COMPOSITIONS OF (Z)-ENDOXIFEN AND METHODS OF ENRICHMENT THEREOF” (Atossa Therapeutics, Inc., priority 2022, published 2025)
Like-named read-outs stand apart in the source and are kept apart here. Each block holds one molecule with its values, some of them ahead of it.

Columns and labels:
Format in all cases: physicochemical
[1] = Storage stability of polymorphic forms at room temperature in a sealed vial (XRPD time course)
Experimental: Form I samples were collected for XR-PD analysis following 0, 7, and 42 days of storage, the results of which are shown in FIG. 10.
The stability of polymorphic Form IV was evaluated over 7 days of storage at room temperature in a sealed vial. Portions of the Form IV samples were collected for XRPD analysis following 0 (Form IV), 3 (Form IV-3D3-storage), and 7 days (Form IV-7D3-storage) of storage, the results of which are shown in FIG. 14.
The stability of polymorphic Form IV was also evaluated following crystallization from a room temperature 2-propanol/THF 95/5 (v/v) solvent system containing 40 mg/ml (Z)-endoxifen. XPRD was collected immediately after recovery and following 15 days storage at room temperature in a sealed vial. FIG. 15 provides the resultant XRPD patterns following 15 days storage (Form IV-2PR/THF-15D-storage) and 0 days storage (Form IV-2PR/THF-0D-storage), as well as an XRPD spectrum of Form IV (Form IV) obtained from 2-propanol recrystallization.
Since the room temperature evaporation in acetone yielded a mixture of polymorphic Form I and Form IV XRPD patterns with a very intense unassigned signal at 16.1° 2θ, the sample was re-measured following 7 days storage in a sealed vial. From top to bottom, FIG. 16 provides XRPD patterns of the acetone-generated polymorphs following 7 (EVRT-ACT-7D-storage) and 0 days of storage (EVRT-ACT-0D-storage), a Form IV spectrum (Form IV), and a Form I (Form I) spectrum, respectively.
Form XVII was further assessed after 3 days storage in a sealed vial at room temperature.
Form XVIII was further reassessed by XRPD following 3 and 7 days storage at room temperature in a sealed vial. The data from these analyses are summarized in FIG. 24, which (from top to bottom) provides the sample following 7 days storage (Form XVIII-7D-storage), the sample following 3 days storage (Form XVIII-3D-storage), and the sample immediately following crystallization (Form XVIII).
Form XIX room temperature stability was evaluated with XRPD. XRPD of a Form XIX sample immediately following crystallization (Form XIX) and following 7 days of storage (Form XIX-7D-storage) are shown in FIG. 26.
The stability of polymorphic Form V was over 10 days of storage at room temperature in a sealed vial. XR-PD was performed following 0, 3, and 10 days storage.
To evaluate Form VI stability, XRPD spectra of a Form VI sample were collected following 0, 3, and 14 days of room temperature storage in a sealed vial. The resulting XRPD patterns of the sample following 0 (Form VI), 3 (Form VI-3D-storage), and 14 days storage (Form VI-14D-storage) are shown in FIG. 30.
The stability of polymorphic Form VII was evaluated over 7 days of storage at room temperature in a sealed vial. Portions of the Form VII samples were collected for XRPD analysis over 7 days of storage, the results of which are shown in FIG. 32.
Form VIII stability over 7 days storage in a sealed vial at room temperature was evaluated with XRPD.
The stability of Form IX generated by precipitation from an ethyl acetate/heptane solvent system (Form IX Recrystallization (1)) was evaluated over 7 days of storage at room temperature. Portions of the Form IX sample were collected following 0 and 7 days of storage in a sealed vial and analyzed by XRPD analysis to identify possible changes in the polymorph.
Form IX stability was separately characterized for crystals generated through the addition of (Z)-endoxifen saturated ethyl acetate to heptane (Form IX Recrystallization (2)), which yielded higher crystallinity Form IX than was afforded by heptane addition to (Z)-endoxifen saturated ethyl acetate.
Form IX stability was further evaluated for crystals generated by precipitation from an acetone/butyl methyl ether (acetone/BME) solvent/antisolvent mixture (Form IX Recrystallization (4)). Portions of the Form IX sample were collected following 0 and 5 days of storage in a sealed vial at room temperature and compared to reference XRPD patterns of Forms VII and IX. […]

[2] = Mechanical stability: grinding and kneading by ball milling (XRPD); conditions: for XRPD pattern after mechanical grinding: 10 minutes ball milling at 30 Hz; for XRPD pattern after kneading: 10 minutes ball milling at 30 Hz with catalytic 2-propanol (2 μl)
Experimental: Stability tests were performed on mixtures of Form I and Form IV; Form I and Form VII; and Form I, Form IV, and Form VII. In a first mechanical stability test, the polymorphs were analyzed by XRPD following 10 minutes of grinding by ball milling at 30 Hz. In a second mechanical stability test, the polymorphs were analyzed by XRPD following 10 minutes of kneading by ball milling at 30 Hz in the presence of a catalytic amount of 2-propanol (2 μl).

[3] = Stability at various temperatures and relative humidities, seven days (XRPD); conditions: 7 days
Experimental: The stabilities of the polymorphs were also assessed at various temperatures and relative humidities. These analyses were performed by storing 20 mg of polymorph samples for seven days at: (1) 25° C. and 100% relative humidity, (2) 40° C. and 75% relative humidity, (3) 25° C. and 60% relative humidity, and (4) at 60° C. and 75% relative humidity. XRPD was collected on the samples following these incubations and compared to XRPD of the samples prior to storage.

[4] = Thermogravimetric analysis (TGA), degradation
Experimental: The TGA profile of Form I is shown in the top panel of FIG. 12 with the heat-flow profile in the middle panel of FIG. 12, and the first derivative of the TGA profile in the bottom pane of FIG. 12. […] A weight loss of 0.2% was detected between 140° C. and 180° C., potentially ascribable to solvent release. Degradation of Form I took place above 270° C. The heat-flow profile included two main peaks around 50° C. and 160° C. The first derivative of the TGA profile indicated a greatest decline in the TGA profile occurred around 400° C., and that weight loss occurred around 320° C.

[5] = 7 days, room temperature, sealed vial
[6] = 3 days, room temperature, sealed vial
[7] = 25° C. and 100% relative humidity
[8] = 40° C. and 75% relative humidity

Compound: CC/C(=C(\c1ccc(O)cc1)c1ccc(OCCNC)cc1)c1ccccc1 [second mixture of Form I and Form VII, (Z)-endoxifen]
- XRPD pattern after mechanical grinding [2]: Form I and Form VII with slightly lowered crystallinity

Compound: CC/C(=C(\c1ccc(O)cc1)c1ccc(OCCNC)cc1)c1ccccc1 [Form XVII, (Z)-endoxifen]
- XRPD change on storage [1, 6]: complete conversion of Form XVII (Form XVII) into Form I

Compound: CC/C(=C(\c1ccc(O)cc1)c1ccc(OCCNC)cc1)c1ccccc1 [Form X, (Z)-endoxifen]
- XRPD change on storage [1, 5]: near complete conversion to Form XI

Compound: CC/C(=C(\c1ccc(O)cc1)c1ccc(OCCNC)cc1)c1ccccc1 [Form XII, (Z)-endoxifen]
- XRPD change on storage ([1]; 2 days, room temperature, sealed vial): stable under ambient conditions

Compound: CC/C(=C(\c1ccc(O)cc1)c1ccc(OCCNC)cc1)c1ccccc1 [Form VI, (Z)-endoxifen]
- XRPD change on storage ([1]; 14 days, room temperature, sealed vial): stable under ambient conditions

Compound: CC/C(=C(\c1ccc(O)cc1)c1ccc(OCCNC)cc1)c1ccccc1 [Form XI, (Z)-endoxifen]
- XRPD change on storage ([1]; 18 days, room temperature): stable under ambient conditions

Compound: CC/C(=C(\c1ccc(O)cc1)c1ccc(OCCNC)cc1)c1ccccc1 [Form V, (Z)-endoxifen]
- XRPD change on storage [1, 6]: converted almost completely to Form VI
- XRPD change on storage ([1]; 10 days, room temperature, sealed vial): completely to Form VI

Compound: CC/C(=C(\c1ccc(O)cc1)c1ccc(OCCNC)cc1)c1ccccc1 [Form XIX, (Z)-endoxifen]
- XRPD change on storage [1, 5]: stable under ambient conditions

Compound: CC/C(=C(\c1ccc(O)cc1)c1ccc(OCCNC)cc1)c1ccccc1 [Form VII, (Z)-endoxifen]
- XRPD change on storage [1, 5]: stable under ambient conditions
- Degradation temperature (TGA) [4]: above 270 °C
- XRPD pattern after storage [3, 7]: no significant change to the XRPD pattern
- XRPD pattern after storage [3, 8]: no significant change to the XRPD pattern

Compound: CC/C(=C(\c1ccc(O)cc1)c1ccc(OCCNC)cc1)c1ccccc1 [Form IX, (Z)-endoxifen]
- XRPD change on storage ([1]; 5 days, room temperature, sealed vial, Form IX from acetone/butyl methyl ether (Form IX Recrystallization (4))): new signal at 9.1° 2θ, possibly indicating the presence of Form VII as well as partial amorphization of the sample
- XRPD change on storage ([1]; 7 days, room temperature, sealed vial, Form IX Recrystallization (1), ethyl acetate/heptane): stable under ambient conditions
- XRPD change on storage ([1]; 7 days, room temperature, sealed vial, Form IX Recrystallization (2)): weak XRPD signals ascribable to small amounts of Form I
- XRPD change on storage ([1]; 8 days, room temperature, sealed vial, Form IX from room temperature ethyl acetate/heptane 50/50 (v/v) slurries, unassigned signals at 10.1, 11.7, 16.8, 18.5, 19.4, 23.1): these peaks persisted following 8 days of storage
- XRPD change on storage ([1]; 13 days, room temperature, sealed vial, Form IX Recrystallization (2)): weak XRPD signals ascribable to small amounts of Form I
- Degradation temperature (TGA) [4]: above 270 °C

Compound: CC/C(=C(\c1ccc(O)cc1)c1ccc(OCCNC)cc1)c1ccccc1 [Form VIII, (Z)-endoxifen]
- XRPD change on storage [1, 5]: no significant difference

Compound: CC/C(=C(\c1ccc(O)cc1)c1ccc(OCCNC)cc1)c1ccccc1 [first mixture of Form I and Form VII, (Z)-endoxifen]
- XRPD pattern after mechanical grinding [2]: amorphous (Z)-endoxifen with signals ascribable to Form I and Form VII

Compound: CC/C(=C(\c1ccc(O)cc1)c1ccc(OCCNC)cc1)c1ccccc1 [Form XIV, (Z)-endoxifen]
- XRPD change on storage [1, 6]: partial conversion to Forms I and VII
- XRPD change on storage [1, 5]: partial conversion to Forms I and VII

Compound: CC/C(=C(\c1ccc(O)cc1)c1ccc(OCCNC)cc1)c1ccccc1 [Form I, (Z)-endoxifen]
- XRPD change on storage ([1]; 0, 7, and 42 days of storage): stable under ambient conditions
- XRPD pattern after mechanical grinding [2]: converted portions of Form I to amorphous endoxifen
- XRPD pattern after kneading [2]: converted portions of Form I to amorphous endoxifen
- Degradation temperature (TGA) [4]: above 270 °C
- Degradation temperature (TGA) ([4]; sample from scaled-up crystallization): 270 °C
- XRPD pattern after storage [3, 7]: did not induce detectable changes in the Form I XRPD
- XRPD pattern after storage [3, 8]: no significant changes to the XRPD pattern

The next lines start with results.

- XRPD change on storage [1, 5]: partial amorphization
Compound: CC/C(=C(\c1ccc(O)cc1)c1ccc(OCCNC)cc1)c1ccccc1 [Form XVIII, (Z)-endoxifen]

- XRPD pattern after mechanical grinding [2]: Form I with traces of Form IV
- XRPD pattern after storage ([3]; 25° C./60% RH): mixture of Form I and Form IV
- XRPD pattern after storage ([3]; 60° C./75% RH): XRPD pattern of Form I
Compound: CC/C(=C(\c1ccc(O)cc1)c1ccc(OCCNC)cc1)c1ccccc1 [mixture of Form I and Form IV, (Z)-endoxifen]
- XRPD pattern after kneading [2]: Form I with a signal at 4.8° 20 ascribable to Form IV

- XRPD change on storage ([1]; 4 days, room temperature, sealed vial): conversion of Form XIII to Form XII
- XRPD change on storage ([1]; 5 days total, room temperature, sealed vial): conversion to only Form XII
Compound: CC/C(=C(\c1ccc(O)cc1)c1ccc(OCCNC)cc1)c1ccccc1 [mixture of Form XII and Form XIII, (Z)-endoxifen]

- XRPD change on storage [1, 5]: No significant changes were detected
Compound: CC/C(=C(\c1ccc(O)cc1)c1ccc(OCCNC)cc1)c1ccccc1 [Forms I and IV polymorphic mixture, (Z)-endoxifen]

- Room temperature stability ([1]; duration not given): limited room temperature stabilities
Compound: CC/C(=C(\c1ccc(O)cc1)c1ccc(OCCNC)cc1)c1ccccc1 [Form XV, (Z)-endoxifen]

- XRPD pattern after storage ([3]; 25° C./60% RH): mixture of Form I, Form IV, and Form VII
- XRPD pattern after storage ([3]; 60° C./75% RH): mixture of Form I and Form VII
Compound: CC/C(=C(\c1ccc(O)cc1)c1ccc(OCCNC)cc1)c1ccccc1 [mixture of Form I, Form IV, and Form VII, (Z)-endoxifen]
- XRPD pattern after mechanical grinding [2]: Form I with a slightly lowered degree of crystallinity
- XRPD pattern after kneading [2]: Form I with a mild signal at 4.8° 20 ascribable to Form IV
